Measurements: ChEMBL document CHEMBL1201862, “PubChem BioAssay data set” (2004)
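Interpolation was linear, between the two tested concentrations surrounding the appropriate level; five concentrations were tested over 48 hours in 96-well plates. The concentration for 50% growth inhibition is given as GI50.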 Calls of active or inactive are those of the source. No stated cut-off is given here; in the data, active = GI50 up to about 1.1 µM and inactive = higher.

Legend:
Experiment in all cases: DTP human tumour cell line panel, 48 h
LOX IMVI = tested on: LOX IMVI
HOP-92 = tested on: HOP-92
RPMI-8226 = tested on: RPMI-8226
M19-MEL = tested on: M19-MEL
TK-10 = tested on: TK-10
HCC 2998 = tested on: HCC 2998
RXF 393 = tested on: RXF 393
NCI-H23 = tested on: NCI-H23
OVCAR-3 = tested on: OVCAR-3
SN12C = tested on: SN12C
COLO 205 = tested on: COLO 205
KM12 = tested on: KM12
K562 = tested on: K562
SK-MEL-2 = tested on: SK-MEL-2
HOP-62 = tested on: HOP-62
SF-295 = tested on: SF-295
786-0 = tested on: 786-0
SF-539 = tested on: SF-539
MDA-N = tested on: MDA-N
Hs-578T = tested on: Hs-578T

| SMILES | GI50 (LOX IMVI) | GI50 (HOP-92) | GI50 (RPMI-8226) | GI50 (M19-MEL) | GI50 (TK-10) | GI50 (HCC 2998) | GI50 (RXF 393) | GI50 (NCI-H23) | GI50 (OVCAR-3) | GI50 (SN12C) | GI50 (COLO 205) | GI50 (KM12) | GI50 (K562) | GI50 (SK-MEL-2) | GI50 (HOP-62) | GI50 (SF-295) | GI50 (786-0) | GI50 (SF-539) | GI50 (MDA-N) | GI50 (Hs-578T) |
| --- | --- | --- | --- | --- | --- | --- | --- | --- | --- | --- | --- | --- | --- | --- | --- | --- | --- | --- | --- | --- |
| Cc1c(CCCl)c(Cl)n2c(nc3ccccc32)c1C#N | 0.281 µM (active) | 1.15 µM (inactive) | 0.092 µM (active) | 4.21 µM (inactive) | 1.61 µM (inactive) | 1.56 µM (inactive) | 0.787 µM (active) | 0.904 µM (active) | 1.35 µM (inactive) | 0.423 µM (active) | 0.991 µM (active) | 1.19 µM (inactive) | 0.321 µM (active) | 1.06 µM (active) | 2 µM (inactive) | 1.31 µM (inactive) | 0.463 µM (active) | 0.681 µM (active) | 0.826 µM (active) |  |
| CN(C)CCNC(=O)c1cccc2ccc(-c3ccc(O)cc3)nc12 | 0.743 µM (active) | 3.03 µM (inactive) | 2.39 µM (inactive) | 1.9 µM (inactive) | 2.94 µM (inactive) | 5.86 µM (inactive) | 4.72 µM (inactive) | 3.09 µM (inactive) | 3.13 µM (inactive) | 2.16 µM (inactive) | 3.33 µM (inactive) | 4.54 µM (inactive) | 0.839 µM (active) | 4.5 µM (inactive) | 1.47 µM (inactive) | 2.13 µM (inactive) | 2.63 µM (inactive) | 2.75 µM (inactive) | 2.39 µM (inactive) | 2.66 µM (inactive) |
| COc1ccc(N2C(=O)[C@H]3[C@H]4CC(C(C)(C)C)CC[C@H]4c4c(n(C)c5ccccc45)[C@H]3C2=O)cc1 (some centres undefined) | > 100 µM (inactive) | > 100 µM (inactive) | > 100 µM (inactive) | < 0.01 µM (active) | > 10 µM (inactive) | 5.62 µM (inactive) | > 23.7 µM (inactive) | > 100 µM (inactive) | > 100 µM (inactive) | > 56.2 µM (inactive) | > 100 µM (inactive) | > 10 µM (inactive) | > 95.3 µM (inactive) | > 4.65 µM (inactive) | > 5.62 µM (inactive) | > 100 µM (inactive) | > 100 µM (inactive) | 32.4 µM (inactive) | > 100 µM (inactive) | 56.1 µM (inactive) |
| O=C(c1ccc(Cl)cc1)c1ccc(OCCCOc2ccc(C(=O)c3ccc(Cl)cc3)cc2)cc1 | > 100 µM (inactive) | 78.9 µM (inactive) | > 100 µM (inactive) | > 100 µM (inactive) | > 100 µM (inactive) | > 100 µM (inactive) | 88.3 µM (inactive) | > 100 µM (inactive) | > 100 µM (inactive) | > 100 µM (inactive) | > 100 µM (inactive) | > 100 µM (inactive) | > 100 µM (inactive) | > 100 µM (inactive) | > 100 µM (inactive) | > 100 µM (inactive) | > 100 µM (inactive) | > 100 µM (inactive) |  |  |
| Cc1cc2c3ccccc3n(C)c2c2c1C(=O)C=CC2=O | 17.5 µM (inactive) | 12.1 µM (inactive) | 1.58 µM (inactive) | 18.2 µM (inactive) | 16.5 µM (inactive) | 20.2 µM (inactive) | 6.64 µM (inactive) | 12.4 µM (inactive) | 15 µM (inactive) | 18.1 µM (inactive) | 17.9 µM (inactive) | 17 µM (inactive) | 5.33 µM (inactive) | 18.1 µM (inactive) | 22.4 µM (inactive) | 27.7 µM (inactive) | 5.78 µM (inactive) | 21.6 µM (inactive) | 12.9 µM (inactive) | 22.3 µM (inactive) |
| COc1ccc(O)c(C(=O)CCC(=O)O)c1 | > 100 µM (inactive) | > 100 µM (inactive) | > 100 µM (inactive) | > 100 µM (inactive) | > 100 µM (inactive) | > 100 µM (inactive) | > 100 µM (inactive) | > 100 µM (inactive) | > 10 µM (inactive) | > 100 µM (inactive) | > 100 µM (inactive) | > 100 µM (inactive) | > 100 µM (inactive) | > 100 µM (inactive) | > 10 µM (inactive) | > 100 µM (inactive) | > 100 µM (inactive) | > 100 µM (inactive) |  |  |
| CC(=O)O[C@H]1C(=O)[C@@]2(C)C([C@H](OC(=O)c3ccccc3)[C@]3(O)C[C@H](OC(=O)[C@H](O)[C@@H](NC(=O)c4ccc(Cl)cc4)c4ccccc4)C(C)=C1C3(C)C)C1(OC(C)=O)CO[C@@H]1C[C@@H]2O (some centres undefined) | < 0.01 µM (active) |  | < 0.01 µM (active) | < 0.01 µM (active) | 0.661 µM (active) | < 0.01 µM (active) | 1.02 µM (active) | 0.0738 µM (active) | 0.0346 µM (active) | 0.182 µM (active) | 0.0607 µM (active) | 0.0466 µM (active) | > 25 µM (inactive) | 0.0274 µM (active) | 0.474 µM (active) | 0.6 µM (active) | 0.123 µM (active) | 0.0689 µM (active) | 0.00665 µM (active) | 0.0188 µM (active) |
| CN(C)c1nc(N(C)C)nc(N(C)C)n1 [ALTRETAMINE] | > 145 µM (inactive) | 147 µM (inactive) | > 143 µM (inactive) | > 144 µM (inactive) | > 150 µM (inactive) | > 123 µM (inactive) | > 150 µM (inactive) | > 143 µM (inactive) | 142 µM (inactive) | > 150 µM (inactive) | > 148 µM (inactive) | > 150 µM (inactive) | > 148 µM (inactive) | > 150 µM (inactive) | 139 µM (inactive) | > 150 µM (inactive) | > 150 µM (inactive) | > 143 µM (inactive) | > 150 µM (inactive) | > 150 µM (inactive) |
